Counter-ions that a name gives are not always drawn.
Molecular target: T1, human H4 (Homo sapiens, UniProt Q9H3N8)
T1 construct: host or cells: CHO-K1
Assay: In vitro histamine receptor cell-based assay (aequorin bioluminescence), H4 antagonism
Conditions: CHO-K1 cells expressing human H4, aequorin and Gα16; histamine at EC80; read-out: H4 Antagonist EC50
Procedure: The cell-based assays utilize an aequorin dependent bioluminescence signal. Doubly-transfected, stable CHO-K1 cell lines expressing human H1 or H4, mitochondrion-targeted aequorin, and (H4 only) human G protein Gα16 are obtained from Perkin-Elmer. Cells are maintained in F12 (Ham's) growth medium, containing 10% (vol./vol.) fetal bovine serum, penicillin (100 IU/mL), streptomycin (0.1 mg/mL), zeocin (0.25 mg/mL) and geneticin (0.40 mg/mL). Cell media components are from Invitrogen, Inc. One day prior to assay, the growth medium is replaced with the same, excluding zeocin and geneticin.
For assay preparation, growth medium is aspirated, and cells are rinsed with calcium-free, magnesium-free phosphate-buffered saline, followed by two to three minute incubation in Versene (Invitrogen, Inc.) at 37° C. Assay medium (DMEM:F12 [50:50], phenol-red free, containing 1 mg/mL protease-free bovine serum albumin) is added to collect the released cells, which are then centrifuged. The cell pellet is re-suspended in assay medium, centrifuged once more, and re-suspended in assay medium to a final density of 5×10^6 cells/mL. Coelenterazine-h dye (500 μM in ethanol) is added to a final concentration of 5 μM, and mixed immediately. The conical tube containing the cells is then wrapped with foil to protect the light-sensitive dye. The cells are incubated for four hours further at room temperature (approximately 21° C.) with end-over-end rotation to keep them in suspension.
Just before assay, the dye-loaded cells are diluted to 0.75×10^6 cells/mL (H1 receptor) or 1.5×10^6 cells/mL (H4 receptor) with additional assay medium. Cells are dispensed to 1536 well micro-titer plates at 3 μL/well. To assay receptor antagonism, 60 nl of 100× concentration test compounds in 100% dimethyl sulfoxide (DMSO) are dispensed to the wells, one compound per well, by passive pin transfer, and the plates are incubated for 15 minutes at room temperature. […] The pipette dispenses 3 μL/well of agonist (histamine, at twice the final concentration, where final concentration is a previously determined EC80) in assay medium, with concurrent bioluminescence detection. Agonist activity of test compounds is excluded by separate assays that measure response to test compounds immediately, without added histamine agonist.
CCD image capture on the Lumilux includes a 5 second baseline read prior to agonist addition, and generally a 40 second read per plate after agonist addition. A decrease in bioluminescence signal (measured either as area-under-the-curve, or maximum signal amplitude minus minimum signal amplitude) correlates with receptor antagonism in a dose dependent manner. The negative control is DMSO lacking any test compound. For antagonist assays, the positive controls are diphenhydramine (2-Diphenylmethoxy-N,N-dimethylethylamine, 10 μM final concentration, H1 receptor) or JNJ7777120 (1-[(5-Chloro-1H-indol-2-yl)carbonyl]-4-methyl-piperazine, 10 μM final concentration, H4 receptor). Efficacy is measured as a percentage of positive control activity.

SMILES | EC50
Fc1cc(C(F)(F)F)cc2c1nc(N1CCNCC1)c1nnnn12 [Example 206, 6-fluoro-4-(piperazin-1-yl)-8-(trifluoromethyl)tetrazolo[1,5-a]quinoxaline hydrochloride] | < 10 µM
Cc1nc2c3cc(Cl)cc(F)c3nc(N3CCNCC3)n2n1 [Example 247, 9-chloro-7-fluoro-2-methyl-5-(piperazin-1-yl)-[1,2,4]triazolo[1,5-c]quinazoline] | < 10 µM
Cc1nc2c(N3CCNCC3)nc3ccc(Br)cc3n2n1 [Example 242, 8-bromo-2-methyl-4-(piperazin-1-yl)-[1,2,4]triazolo[1,5-a]quinoxaline] | < 10 µM
CCOC(=O)c1nc2c(N3CCN(C)CC3)nc3ccc(Cl)cc3n2n1 [Example 244, Ethyl 8-chloro-4-(4-methylpiperazin-1-yl)-[1,2,4]triazolo[1,5-a]quinoxaline-2-carboxylate] | > 10 µM
CN1CCN(c2nc3ccc(C(F)(F)F)c(F)c3n3nnnc23)CC1 [Example 171, 9-Fluoro-4-(4-methylpiperazin-1-yl)-8-(trifluoromethyl)tetrazolo[1,5-a]quinoxaline] | < 10 µM
Cc1nc2c(N3CCNCC3)nc3cc(F)c(C)cc3n2n1 [Example 240, 7-fluoro-2,8-dimethyl-4-(piperazin-1-yl)-[1,2,4]triazolo[1,5-a]quinoxaline] | < 10 µM
Clc1ccc2c(c1)nc(N1CCNCC1)c1nocc12 [Example 225, 7-chloro-4-(piperazin-1-yl)isoxazolo[3,4-c]quinoline] | < 10 µM
Brc1ccc2nc(N3CCNCC3)c3nnnn3c2c1 [Example 205, 8-bromo-4-(piperazin-1-yOtetrazolo[1,5-a]quinoxaline] | < 10 µM
CN1CCN(c2nc3cc(Cl)ccc3c3conc23)CC1 [Example 224, 7-chloro-4-(4-methylpiperazin-1-yl)isoxazolo[3,4-c]quinoline] | < 10 µM
Cn1cc2c(n1)c(N1CCNCC1)nc1ccc(Br)cc12 [Example 235, 8-bromo-2-methyl-4-(piperazin-1-yl)-2H-pyrazolo[3,4-c]quinoline] | < 10 µM
CN1CCN(c2nc3ccc(Br)cc3c3cn(C)nc23)CC1 [Example 234, 8-bromo-2-methyl-4-(4-methylpiperazin-1-yl)-2H-pyrazolo[3,4-c]quinoline] | < 10 µM
CN1CCN(c2nc3c(F)cc(Br)cc3n3cnnc23)CC1 [Example 208, 8-bromo-6-fluoro-4-(4-methylpiperazin-1-yl)-[1,2,4]triazolo[4,3-a]quinoxaline] | < 10 µM
Clc1ccc2nc(N3CCN4CCCC4C3)c3nnnn3c2c1 (stereo not shown) [Example 213, 8-chloro-4-(hexahydropyrrolo[1,2-a]pyrazin-2(1H)-yl)tetrazolo[1,5-a]quinoxaline] | < 10 µM
Fc1cc2nc(N3CCNCC3)c3nocc3c2cc1F [Example 227, 7,8-difluoro-4-(piperazin-1-yl)isoxazolo[3,4-c]quinoline] | < 10 µM
CN1CCN(c2nc3c(F)cc(C(F)(F)F)cc3n3nnnc23)CC1 [Example 207, 6-fluoro-4-(4-methylpiperazin-1-yl)-8-(trifluoromethyl)tetrazolo[1,5-a]quinoxaline hydrochloride] | < 10 µM
CN1CCN(c2nc3cc(F)c(Br)cc3n3nnnc23)CC1 [Example 212, 8-bromo-7-fluoro-4-(4-methylpiperazin-1-yl)tetrazolo[1,5-a]quinoxaline] | < 10 µM
CN1CCN(c2nc3ccc(Cl)cc3n3ncnc23)CC1 [Example 243, 8-chloro-4-(4-methylpiperazin-1-yl)-[1,2,4]triazolo[1,5-a]quinoxaline] | < 10 µM
Cc1nc2c(N3CCN(C)CC3)nc3ccc(Br)cc3n2n1 [Example 241, 8-bromo-2-methyl-4-(4-methylpiperazin-1-yl)-[1,2,4]triazolo[1,5-a]quinoxaline] | < 10 µM
Cc1nc2c(N3CCN(C)CC3)nc3cc(F)c(C)cc3n2n1 [Example 239, 7-fluoro-2,8-dimethyl-4-(4-methylpiperazin-1-yl)-[1,2,4]triazolo[1,5-a]quinoxaline] | < 10 µM
CN1CCN(c2nc3cc(F)c(F)cc3c3conc23)CC1 [Example 226, 7,8-difluoro-4-(4-methylpiperazin-1-yl)isoxazolo[3,4-c]quinoline] | < 10 µM
Cc1nc2c(N3CCNCC3)nc3cc(F)c(Br)cc3n2n1 [Example 238, 8-bromo-7-fluoro-2-methyl-4-(piperazin-1-yl)-[1,2,4]triazolo[1,5-a]quinoxaline] | < 10 µM
CN1CCN(c2nc3c(F)cc(Br)cc3n3nnnc23)CC1 [Example 210, 8-bromo-6-fluoro-4-(4-methylpiperazin-1-yl)tetrazolo[1,5-a]quinoxaline] | < 10 µM
Clc1ccc2nc(N3CCN4CCCC4C3)c3nocc3c2c1 (stereo not shown) [Example 230, 8-chloro-4-(hexahydropyrrolo[1,2-a]pyrazin-2(1H)-yl)isoxazolo[3,4-c]quinoline] | < 10 µM

Other lines, results leading:

EC50 | SMILES
< 10 µM | Cc1nc2c(N3CCN(C)CC3)nc3cc(F)c(Br)cc3n2n1 [Example 237, 8-bromo-7-fluoro-2-methyl-4-(4-methylpiperazin-1-yl)-[1,2,4]triazolo[1,5-a]quinoxaline]
< 10 µM | FC(F)(F)c1ccc2nc(N3CCNCC3)c3[nH]ncc3c2c1 [Example 231, 4-(piperazin-1-yl)-8-(trifluoromethyl)-3H-pyrazolo[3,4-c]quinoline]
< 10 µM | Fc1cc2nc(N3CCNCC3)c3nnnn3c2cc1Br [Example 211, 8-bromo-7-fluoro-4-(piperazin-1-yl)tetrazolo[1,5-a]quinoxaline]
< 10 µM | Cc1nc2c3cc(Br)cc(F)c3nc(N3CCN(C)CC3)n2n1 [Example 248, 9-bromo-7-fluoro-2-methyl-5-(4-methylpiperazin-1-yl)-[1,2,4]triazolo[1,5-c]quinazoline]
< 10 µM | Fc1cc2c(cc1Cl)nc(N1CCNCC1)c1nnnn12 [Example 202, 7-chloro-8-fluoro-4-(piperazin-1-yl)tetrazolo[1,5-a]quinoxaline]
< 10 µM | Brc1ccc2nc(N3CCNCC3)c3n[nH]cc3c2c1 [Example 233, 8-bromo-4-(piperazin-1-yl)-2H-pyrazolo[3,4-c]quinoline]
< 10 µM | CN1CCN(c2nc3ccc(Br)cc3n3nnnc23)CC1 [Example 204, 8-bromo-4-(4-methylpiperazin-1-yl)tetrazolo[1,5-a]quinoxaline]
> 10 µM | Brc1ccc2c(c1)nc(N1CCNCC1)c1nocc12 [Example 229, 7-bromo-4-(piperazin-1-yl)isoxazolo[3,4-c]quinoline]
< 10 µM | Fc1cc(Br)cc2c1nc(N1CCNCC1)c1nncn12 [Example 209, 8-bromo-6-fluoro-4-(piperazin-1-yl)-[1,2,4]triazolo[4,3-a]quinoxaline]
< 10 µM | CN1CCN(c2nc3ccc(Br)cc3c3c[nH]nc23)CC1 [Example 232, 8-bromo-4-(4-methylpiperazin-1-yl)-2H-pyrazolo[3,4-c]quinoline]
< 10 µM | CN1CCN(c2nc3cc(Br)ccc3c3conc23)CC1 [Example 228, 7-bromo-4-(4-methylpiperazin-1-yl)isoxazolo[3,4-c]quinoline]
> 10 µM | FC(F)(F)c1ccc2c(c1)nc(N1CCNCC1)c1nocc12 [Example 221, 4-(piperazin-1-yl)-7-(trifluoromethyl)isoxazolo[3,4-c]quinoline]
< 10 µM | Cc1nc2c3cc(Cl)cc(F)c3nc(N3CCN(C)CC3)n2n1 [Example 246, 9-chloro-7-fluoro-2-methyl-5-(4-methylpiperazin-1-yl)-[1,2,4]triazolo[1,5-c]quinazoline]
< 10 µM | CN1CCN(c2nc3cc(Cl)c(F)cc3n3nnnc23)CC1 [Example 203, 7-chloro-8-fluoro-4-(4-methylpiperazin-1-yl)tetrazolo[1,5-a]quinoxaline]

From US20120065187A1 (ALCON RESEARCH, LTD, priority 2008, published 2012)
